Measured values from ChEMBL document CHEMBL4627310, “Design, synthesis and biological evaluation of 3-nitro-1,8-naphthalimides as potential antitumor agents” (Bioorg Med Chem Lett, 2020).

What was measured:
HepG2 [1] = test: Anticancer activity against human HepG2 cells xenografted in mouse assessed as tumor growth inhibition by measuring T/C ratio at 5 mg/kg measured at day 14 relative to control; assay type: functional
SMMC-7721 = test: Antiproliferative activity against human SMMC7721 cells assessed as cell growth inhibition measured after 48 hrs by MTT assay; assay type: functional, cell-based; settings: SMMC-7721, 48 h
A549 = test: Antiproliferative activity against human A549 cells assessed as cell growth inhibition measured after 48 hrs by MTT assay; assay type: functional, cell-based; settings: A549, 48 h
T-24 [2] = test: Antiproliferative activity against human T24 cells assessed as cell growth inhibition measured after 48 hrs by MTT assay; assay type: functional, cell-based; settings: T-24, 48 h
L02 = test: Cytotoxicity against human HL7702 cells assessed as cell growth inhibition measured after 48 hrs by MTT assay; assay type: cell-based; settings: L02, 48 h
T-24 [3] = test: Anticancer activity against human T24 cells xenografted in mouse assessed as tumor growth inhibition by measuring T/C ratio at 5 mg/kg measured at day 14 relative to control; assay type: functional
HepG2 [4] = test: Anticancer activity against human HepG2 cells xenografted in mouse assessed as tumor inhibition rate at 5 mg/kg measured at day 14 relative to control; assay type: functional; settings: HepG2, 336 h
HepG2 [5] = test: Antiproliferative activity against human HepG2 cells assessed as cell growth inhibition measured after 48 hrs by MTT assay; assay type: functional, cell-based; settings: HepG2, 48 h
T-24 [6] = test: Anticancer activity against human T24 cells xenografted in mouse assessed as tumor inhibition rate at 5 mg/kg measured at day 14 relative to control; assay type: functional; settings: T-24, 336 h
SK-OV-3 = test: Antiproliferative activity against human SKOV3 cells assessed as cell growth inhibition measured after 48 hrs by MTT assay; assay type: functional, cell-based; settings: SK-OV-3, 48 h

SMILES: CN(C)CCN1C(=O)c2cccc3cc([N+](=O)[O-])cc(c23)C1=O [MITONAFIDE]
- T/C (HepG2 [1]): 28.8%
- IC50 (SMMC-7721): 6.94 µM
- IC50 (A549): 7.94 µM
- IC50 (T-24 [2]): 5.01 µM
- IC50 (L02): 8.51 µM
- T/C (T-24 [3]): 29%
- inhibition in vivo at 5 mg/kg (HepG2 [4]): 68.3%
- IC50 (HepG2 [5]): 10.9 µM
- inhibition in vivo at 5 mg/kg (T-24 [6]): 67%
- IC50 (SK-OV-3): 6.26 µM

SMILES: O=C1c2cccc3cc([N+](=O)[O-])cc(c23)C(=O)N1c1ccc2[nH]c(=O)[nH]c2c1
- IC50 (SMMC-7721): 54.7 µM
- IC50 (A549): 44.8 µM
- IC50 (T-24 [2]): 58 µM
- IC50 (L02): > 100 µM
- IC50 (HepG2 [5]): 23.9 µM
- IC50 (SK-OV-3): 41.4 µM

SMILES: O=C1c2cccc3cc([N+](=O)[O-])cc(c23)C(=O)N1Nc1ccccc1
- IC50 (SMMC-7721): > 100 µM
- IC50 (A549): 32.1 µM
- IC50 (T-24 [2]): 15.1 µM
- IC50 (L02): 59.1 µM
- IC50 (HepG2 [5]): 38.7 µM
- IC50 (SK-OV-3): 61.1 µM

SMILES: O=C1c2cccc3cc([N+](=O)[O-])cc(c23)C(=O)N1Nc1ccccn1
- IC50 (SMMC-7721): > 100 µM
- IC50 (A549): 30 µM
- IC50 (T-24 [2]): 57.6 µM
- IC50 (L02): 82.4 µM
- IC50 (HepG2 [5]): 42.7 µM
- IC50 (SK-OV-3): 48.2 µM
